Experimental data taken from patent publication US7365095B2, “Chromane and chromene derivatives and uses thereof” (Wyeth, priority 2005, dated 2008).
Where a name gives a salt, the structure may show the parent alone.

Tests used:
[1] = target: T1, human 5-hydroxytryptamine-2C (h5-HT2C) receptor (Homo sapiens, UniProt P28335); assay: [125I]DOI binding to membranes of CHO cells expressing h5-HT2C receptor; conditions: read-out: 5-HT2C Binding Ki avg
T1 construct: expressed in transfected cells; host or cells: CHO (Chinese Hamster Ovary) cells; membrane preparation
T1 sequence (P28335 33-458): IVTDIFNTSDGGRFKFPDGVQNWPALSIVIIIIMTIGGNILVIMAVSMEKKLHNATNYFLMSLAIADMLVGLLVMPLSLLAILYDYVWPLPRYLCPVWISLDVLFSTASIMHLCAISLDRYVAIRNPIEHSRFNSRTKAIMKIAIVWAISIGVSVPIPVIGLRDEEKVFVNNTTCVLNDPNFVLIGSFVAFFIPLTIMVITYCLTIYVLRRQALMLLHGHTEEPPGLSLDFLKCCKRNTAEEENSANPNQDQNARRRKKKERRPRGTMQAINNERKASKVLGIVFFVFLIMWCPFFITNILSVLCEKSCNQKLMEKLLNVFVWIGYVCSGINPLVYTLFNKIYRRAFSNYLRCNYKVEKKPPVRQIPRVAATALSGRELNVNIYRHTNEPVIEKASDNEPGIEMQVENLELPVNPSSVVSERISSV

human 5-HT2C receptor = target: T2, human 5-HT2C receptor (Homo sapiens, UniProt P28335); assay: calcium mobilization (FLIPR) in CHO cells stably expressing the human 5-HT2C receptor; assay type: cell-based; conditions: for Emax: CHO, read-out: 5-HT2C Function EMax (%); for EC50: calcium mobilization, read-out: 5-HT2C Function EC50
T2 sequence (P28335 33-458): T1 sequence (P28335 33-458)

With `NC[C@@H]1CCc2cc(F)cc(-c3cc(Cl)ccc3Cl)c2O1` [Compound 55, {[(2S)-8-(2,5-dichlorophenyl)-6-fluoro-3,4-dihydro-2H-chromen-2-yl]methyl}amine hydrochloride] the Ki [1] was no more than 10 nM, the Emax (human 5-HT2C receptor) was 70% and the EC50 (human 5-HT2C receptor) was 50 to 200 nM.

In the case of `CNC[C@H]1CCc2cc(F)cc(-c3ccccc3Cl)c2O1` [Compound 39, {[(2R)-8-(2-chlorophenyl)-6-fluoro-3,4-dihydro-2H-chromen-2-yl]methyl}methylamine hydrochloride], the Ki [1] is reported as no more than 10 nM, the Emax (human 5-HT2C receptor) is reported as 100% and the EC50 (human 5-HT2C receptor) is reported as less than 50 nM.

`NC[C@H]1CCc2cc(F)cc(-c3cc(Cl)ccc3Cl)c2O1` [Compound 46, {[(2R)-8-(2,5-dichlorophenyl)-6-fluoro-3,4-dihydro-2H-chromen-2-yl]methyl}amine hydrochloride] showed a Ki [1] of 10 to 50 nM, an Emax (human 5-HT2C receptor) of 90% and an EC50 (human 5-HT2C receptor) greater than 200 nM.

`CNC[C@H]1CCc2cccc(-c3ccc(OC)cc3OC)c2O1` [Compound 7, N-{[(2R)-8-(2,4-dimethoxyphenyl)-3,4-dihydro-2H-chromen-2-yl]methyl}-N-methylamine hydrochloride] was tested, and the Ki [1] was no more than 10 nM, the Emax (human 5-HT2C receptor) was 90% and the EC50 (human 5-HT2C receptor) was less than 50 nM.

With `NC[C@H]1C=Cc2cc(F)cc(-c3ccccc3Cl)c2O1` [Compound 64, {[(2R)-8-(2-chlorophenyl)-6-fluoro-2H-chromen-2-yl]methyl}amine hydrochloride] the Ki [1] was no more than 10 nM, the Emax (human 5-HT2C receptor) was 90% and the EC50 (human 5-HT2C receptor) was less than 50 nM.

`NC[C@H]1CCc2cc(F)cc(-c3c(Cl)cccc3Cl)c2O1` [Compound 57, {[(2R)-8-(2,6-dichlorophenyl)-6-fluoro-3,4-dihydro-2H-chromen-2-yl]methyl}amine hydrochloride] was tested, and the Ki [1] was no more than 10 nM, the Emax (human 5-HT2C receptor) was 80% and the EC50 (human 5-HT2C receptor) was less than 50 nM.

In the case of `CNC[C@H]1CCc2cc(F)cc(-c3cc(Cl)ccc3Cl)c2O1` [Compound 40, {[(2R)-8-(2,5-dichlorophenyl)-6-fluoro-3,4-dihydro-2H-chromen-2-yl]methyl}methylamine hydrochloride], the Ki [1] is reported as no more than 10 nM, the Emax (human 5-HT2C receptor) is reported as 90% and the EC50 (human 5-HT2C receptor) is reported as less than 50 nM.

In the case of `CNC[C@@H]1CCc2cccc(-c3cc(Cl)ccc3Cl)c2O1` [Compound 20, {[(2S)-8-(2,5-dichlorophenyl)-3,4-dihydro-2H-chromen-2-yl]methyl}methylamine hydrochloride], the Ki [1] is reported as no more than 10 nM, the Emax (human 5-HT2C receptor) is reported as 90% and the EC50 (human 5-HT2C receptor) is reported as less than 50 nM.

`NC[C@H]1CCc2cccc(-c3cccnc3)c2O1` [Compound 18, {[(2R)-8-pyridin-3-yl-3,4-dihydro-2H-chromen-2-yl]methyl}amine hydrochloride] showed a Ki [1] greater than 50 nM, an Emax (human 5-HT2C receptor) of 90% and an EC50 (human 5-HT2C receptor) of less than 50 nM.

For `NC[C@H]1CCc2cc(F)cc(-c3cccnc3)c2O1` [Compound 50, {[(2R)-6-fluoro-8-pyridin-3-yl-3,4-dihydro-2H-chromen-2-yl]methyl}amine hydrochloride], the Ki [1] was 10 to 50 nM, the Emax (human 5-HT2C receptor) was 90% and the EC50 (human 5-HT2C receptor) was less than 50 nM.

With `COc1ccc(-c2cccc3c2O[C@H](CN)CC3)c(OC)c1` [Compound 32, {[(2S)-8-(2,4-dimethoxyphenyl)-3,4-dihydro-2H-chromen-2-yl]methyl}amine hydrochloride] the Ki [1] was 10 to 50 nM, the Emax (human 5-HT2C receptor) was 90% and the EC50 (human 5-HT2C receptor) was 50 to 200 nM.

`CNC[C@H]1CCc2cccc(-c3ccc(Cl)cc3Cl)c2O1` [Compound 4, {[(2R)-8-(2,4-dichlorophenyl)-3,4-dihydro-2H-chromen-2-yl]methyl}methylamine hydrochloride] gave a Ki [1] greater than 50 nM, an Emax (human 5-HT2C receptor) of 80% and an EC50 (human 5-HT2C receptor) of less than 50 nM.

`CNC[C@H]1CCc2cc(F)cc(-c3ccccc3)c2O1` [Compound 42, {[(2R)-6-fluoro-8-phenyl-3,4-dihydro-2H-chromen-2-yl]methyl}methylamine hydrochloride] showed a Ki [1] of no more than 10 nM, an Emax (human 5-HT2C receptor) of 90% and an EC50 (human 5-HT2C receptor) of 50 to 200 nM.

With `NC[C@H]1C=Cc2cccc(-c3c(Cl)cccc3Cl)c2O1` [Compound 60, {[(2R)-8-(2,6-dichlorophenyl)-2H-chromen-2-yl]methyl}amine hydrochloride] the Ki [1] was no more than 10 nM, the Emax (human 5-HT2C receptor) was 100% and the EC50 (human 5-HT2C receptor) was less than 50 nM.

Compound `CNC[C@@H]1CCc2cccc(-c3ccccc3C)c2O1` [Compound 25, N-methyl-1-[(2S)-8-(2-methylphenyl)-3,4-dihydro-2H-chromen-2-yl]methanamine hydrochloride] has a Ki [1] of 10 to 50 nM, an Emax (human 5-HT2C receptor) of 90% and an EC50 (human 5-HT2C receptor) greater than 200 nM.

`NC[C@H]1CCc2cccc(-c3cc(Cl)ccc3Cl)c2O1` [Compound 12, {[(2R)-8-(2,5-dichlorophenyl)-3,4-dihydro-2H-chromen-2-yl]methyl}amine hydrochloride] gave a Ki [1] of 10 to 50 nM, an Emax (human 5-HT2C receptor) of 90% and an EC50 (human 5-HT2C receptor) of 50 to 200 nM.

`CNCC1CCc2cccc(-c3ccccc3Cl)c2O1` (stereo not drawn) [Compound 1, N-{[8-(2-chlorophenyl)-3,4-dihydro-2H-chromen-2-yl]methyl}-N-methylamine hydrochloride] gave a Ki [1] of 10 to 50 nM, an Emax (human 5-HT2C receptor) of 80% and an EC50 (human 5-HT2C receptor) of less than 50 nM.

For `Cc1ccccc1-c1cc(F)cc2c1O[C@H](CN)CC2` [Compound 53, {[(2S)-6-fluoro-8-(2-methylphenyl)-3,4-dihydro-2H-chromen-2-yl]methyl}amine hydrochloride], the Ki [1] was 10 to 50 nM, the Emax (human 5-HT2C receptor) was 70% and the EC50 (human 5-HT2C receptor) was 50 to 200 nM.

`NC[C@H]1C=Cc2cc(F)cc(-c3c(Cl)cccc3Cl)c2O1` [Compound 66, {[(2R)-8-(2,6-dichlorophenyl)-6-fluoro-2H-chromen-2-yl]methyl}amine hydrochloride] gave a Ki [1] of no more than 10 nM, an Emax (human 5-HT2C receptor) of 90% and an EC50 (human 5-HT2C receptor) of less than 50 nM.

In the case of `NC[C@H]1CCc2cc(F)cc(-c3ccccc3)c2O1` [Compound 48, {[(2R)-6-fluoro-8-phenyl-3,4-dihydro-2H-chromen-2-yl]methyl}amine hydrochloride], the Ki [1] is reported as no more than 10 nM, the Emax (human 5-HT2C receptor) is reported as 90% and the EC50 (human 5-HT2C receptor) is reported as 50 to 200 nM.

`CNC[C@H]1CCc2cc(F)cc(-c3ccccc3C)c2O1` [Compound 43, {[(2R)-6-fluoro-8-(2-methylphenyl)-3,4-dihydro-2H-chromen-2-yl]methyl}methylamine hydrochloride] showed a Ki [1] of no more than 10 nM, an Emax (human 5-HT2C receptor) of 90% and an EC50 (human 5-HT2C receptor) of 50 to 200 nM.

`NC[C@@H]1CCc2cccc(-c3ccc(Cl)cc3Cl)c2O1` [Compound 29, {[(2S)-8-(2,4-dichlorophenyl)-3,4-dihydro-2H-chromen-2-yl]methyl}amine hydrochloride] gave a Ki [1] of 10 to 50 nM, an Emax (human 5-HT2C receptor) of 80% and an EC50 (human 5-HT2C receptor) greater than 200 nM.

`NC[C@H]1CCc2cc(F)cc(-c3ccc(Cl)cc3Cl)c2O1` [Compound 47, {[(2R)-8-(2,4-dichlorophenyl)-6-fluoro-3,4-dihydro-2H-chromen-2-yl]methyl}amine hydrochloride] was tested, and the Ki [1] was greater than 50 nM, the Emax (human 5-HT2C receptor) was 90% and the EC50 (human 5-HT2C receptor) was 50 to 200 nM.

`CNC[C@H]1C=Cc2cccc(-c3c(Cl)cccc3Cl)c2O1` [Compound 59, {[(2R)-8-(2,6-dichlorophenyl)-2H-chromen-2-yl]methyl}methylamine hydrochloride] was tested, and the Ki [1] was no more than 10 nM, the Emax (human 5-HT2C receptor) was 90% and the EC50 (human 5-HT2C receptor) was less than 50 nM.

In the case of `Cc1ccccc1-c1cccc2c1O[C@@H](CN)CC2` [Compound 17, {[(2R)-8-(2-methylphenyl)-3,4-dihydro-2H-chromen-2-yl]methyl}amine hydrochloride], the Ki [1] is reported as no more than 10 nM, the Emax (human 5-HT2C receptor) is reported as 80% and the EC50 (human 5-HT2C receptor) is reported as less than 50 nM.

In the case of `NC[C@H]1C=Cc2cc(F)cc(-c3cc(Cl)ccc3Cl)c2O1` [Compound 63, {[(2R)-8-(2,5-dichlorophenyl)-6-fluoro-2H-chromen-2-yl]methyl}amine hydrochloride], the Ki [1] is reported as no more than 10 nM, the Emax (human 5-HT2C receptor) is reported as 90% and the EC50 (human 5-HT2C receptor) is reported as less than 50 nM.
